The test system of one data set is hair papilla cells. Put plainly: Hair papilla cell proliferation test (MTT method). Format: cell-based. The settings on record: concentration used 100 · mol/L; 2 days culture; DMEM with 1% FCS; medium free of hair growth components = 100. On the procedure:
(1) Using a proliferation medium PCGM: Papilla Cell Growth Medium (purchased from TOYOBO CO., LTD., TPGM-250), hair papilla cells were plated to a cell seeding density of 1.0×10^4 cells/well in a 96 well plate.
(2) After culturing at 37° C. in a 5% carbon dioxide gas (CO2) atmosphere for one day, the medium was removed, and the cells were washed with an evaluation medium used for cell proliferation tests, i.e., DMEM (Dulbecco's Modified Eagle's Medium) medium containing 1% FCS (fetal bovine serum). Then, various test components were dissolved in a similar evaluation medium and added to various concentrations (* mol/l).
(3) Subsequently, the cells were further cultured at 37° C. in a 5% carbon dioxide gas (CO2) atmosphere for 2 days, and the hair papilla cell proliferation rate was measured by the MTT method.
(§1) (4) The relative evaluation value was calculated based on the rate obtained using a medium free of various hair growth components as 100, and the value was taken as the proliferation rate.

Data set [1] has as its system human epidermal keratinocytes. Briefly: Human epidermal keratinocyte proliferation test (MTT method, MCDB153 medium). In kind it is cell-based. As to conditions: concentration used 50 · mol/L, 2 days culture, medium free of hair growth components = 100. On the procedure:
(1) Using a serum-free proliferation medium HuMedia-KB2 (purchased from KURABO INDUSTRIES LTD., KK-2350S) added with a proliferation additive HuMedia-KG (purchased from KURABO INDUSTRIES LTD., KK-6150), human epidermal keratinocytes were plated to a cell seeding density of 2.0×10^4 cells/well in a 96 well plate.
(2) After culturing at 37° C. in a 5% carbon dioxide gas (CO2) atmosphere for one day, the medium was removed, and the cells were washed with an evaluation medium used for cell proliferation tests, i.e., MCDB153 medium. Then, various test components were dissolved in a similar evaluation medium and added to various concentrations (* mol/l).
(3) Subsequently, the cells were further cultured at 37° C. in a 5% carbon dioxide gas (CO2) atmosphere for 2 days, and the human epidermal keratinocyte proliferation rate was measured by the MTT method.
as §1

Data set [2] in a line: Solubility of glutamyllysine powder in solvents. Format: physicochemical.

As for `Nc1ncnc2c1ncn2[C@@H]1O[C@H](CO)[C@@H](O)[C@H]1O` [adenosine], the “hair papilla cell proliferation rate (%)” value in the data set with hair papilla cells is 99%. Moreover, in data set [1], the “keratinocyte proliferation rate (%)” value is 118%.

`NC(CCCCNC(=O)CCC(N)C(=O)O)C(=O)O` (centres unmarked) [glutamyllysine, Epsilon-N-(gamma-glutamyl)lysine]: the “solubility in alkaline water, acidic water” value in data set [2] (alkaline water, acidic water and the like) is “soluble”. Also, the “solubility in organic solvents” value in data set [2] (various organic solvents such as methanol, ethanol, acetone) was “hardly soluble or insoluble”. In addition, the “hair papilla cell proliferation rate (%)” value with hair papilla cells was 124%. For the same compound, the “keratinocyte proliferation rate (%)” value in data set [1] amounted to 131%.

For the compound `Nc1cc(N2CCCCC2)nc(N)[n+]1[O-]` [minoxidil], in the data set with hair papilla cells, the “hair papilla cell proliferation rate (%)” value was 113%. In data set [1], the “keratinocyte proliferation rate (%)” value is recorded as 117%.
